According to patent US20030118525A1, “Treatment of uv induced immunosuppression” (priority 2000, published 2003):

Experiments:
[1] = system: collagen in mouse fibroblasts; assay: Collagen cross-linking by UV (solar) irradiation in mouse fibroblasts in vitro; assay type: cell-based; settings: 1-2 μM
From the text: (§1) 1.4 Collagen cross-linking by UV (solar) irradiation was achieved as described in WO 90/06102.

[2] = system: collagen in human fibroblasts; assay: Collagen cross-linking by UV (solar) irradiation in human fibroblasts in vitro; assay type: cell-based; settings: 1-2 μM
From the text: as §1

collagen in mouse skin = assay: Collagen cross-linking by UV (solar) irradiation in mouse skin; settings: 1-2 μM
From the text: as §1

[3] = system: mice irradiated with simulated solar UV radiation (SSUV); assay: Erythema/oedema as mid-dorsal skinfold thickness after simulated solar UV radiation; assay type: in vivo
Procedure: (§2) 1.1 Solar simulated radiation (SSUV) was produced from a filtered fluorescent tube source, and was administered at the rate of 1 MED daily for 3Days.
1.2 Erythema was measured as a mid-dorsal skinfold thickness, which comprises mostly the oedema component of erythema.
(§3) Carnosine incorporated into cosmetic creams at 0.1% and 1.00%, was compared with a cream containing 0.1% acetylcarnosine and a control cream containing neither carnosine nor acylcarnosine. The creams were applied daily (100 μl per mouse) immediately following irradiation with 1 MED of simulated solar UV radiation on 3 consecutive days only.
The sunburn (erythema) response was measured in mice by the oedema component at the peak of the erythema (48 h after the first UV exposure).

[4] = system: mice irradiated with simulated solar UV radiation (SSUV); assay: Contact hypersensitivity to oxazolone after SSUV irradiation (ear swelling); assay type: in vivo; settings: 0.1% cream; in words
Procedure: as §2
1.3 Contact hypersensitivity was induced by application of 100 μl 0.2% w/v oxazolone in ethanol, to the abdominal skin of groups of 6 mice. The mice were challenged by application of 5 μl of fresh oxazolone/ethanol to each surface of both pinnae one week later, and the ear swelling response was measured 24 h later.
as §3

With `CC(=O)NCCC(=O)N[C@@H](Cc1cnc[nH]1)C(=O)O` [acetylcarnosine, N-acetylcarnosine] the “inhibition of cross linking of collagen by UV (solar) irradiation” value (“inhibition of cross linking of collagen” below) [1] was “completely inhibited”, the “inhibition of cross linking of collagen” value [2] was “completely inhibited” and the “inhibition of cross linking of collagen” value (collagen in mouse skin) was “completely inhibited”. The “% increase in skinfold thickness” value ([3]; 0.1% cream, 100 μl per mouse daily immediately after 1 MED SSUV on 3 days, measured at 48 h, base + SSUV 30.2) was 11.3%, the “sunburn (erythema) response, oedema component at peak of erythema” value ([3]; creams applied after SSUV, 48 h after the first UV exposure, in words) was “significant reduction” and the “protection against suppression of contact hypersensitivity resulting from UV irradiation” value [4] was “totally prevented”.
